# Assay results as given in US6835382B2, “Ii peptide therapeutics to enhance antigen presentation” (University of Massachusetts, priority 1996, dated 2004).
# Tested on: murine E^d MHC class II allele
# Assay: simultaneous assay, E^d allele (A20 APC, G28.C9 T hybridoma, HEL106-116; HT-2 [3H]TdR readout)
# Format: cell-based
# Settings: simultaneous assay, Table 14, versus AE114 / AE301; E^d and E^k
# Procedure: Examples 1-4 (Tables 1-18) will be briefly considered in order to establish the concept of tolerance discussed above. These examples describe experimental results observed in the so-called “simultaneous” assay. In the simultaneous assay four principle components are cultured together for a 24 hour period. […] The degree of stimulation of that second, indicator cell by the interleukins which had been released from the activated T cell hybridoma in the primary culture is measured by quantitating tritiated thymidine deoxyribose {[^3H]TdR} uptake into the DNA of the HT-2 indicator cells of that second culture.
# In the “simultaneous assay” the four components of the assay are cultured together for a 24 h period. […] The degree of stimulation of that second, indicator cell by the interleukins which had been released from the activated T cell hybridoma in the primary culture is measured by quantitating tritiated thymidine deoxyribose {[^3H]TdR} uptake into the DNA of the HT-2 indicator cells of that second culture. […]
substance,measurement,value
Ac-LR (mL) KLPK-NH2 [AE302],reduction in activity on substitution of 3-methionine by N-methyl leucine,50-70%
